Measurements from patent US8143254B2, “Methods for modulating ion channels” (Cornell Research Foundation, Inc., priority 2005, dated 2012).

Molecular target: T1, Kv2.1-K356C (Rattus norvegicus, UniProt P15387, K360C)
T1 construct: expressed in transfected cells; host or cells: Xenopus laevis oocytes (cRNA from pGA1)
T1 sequence (P15387 1-857 K360C): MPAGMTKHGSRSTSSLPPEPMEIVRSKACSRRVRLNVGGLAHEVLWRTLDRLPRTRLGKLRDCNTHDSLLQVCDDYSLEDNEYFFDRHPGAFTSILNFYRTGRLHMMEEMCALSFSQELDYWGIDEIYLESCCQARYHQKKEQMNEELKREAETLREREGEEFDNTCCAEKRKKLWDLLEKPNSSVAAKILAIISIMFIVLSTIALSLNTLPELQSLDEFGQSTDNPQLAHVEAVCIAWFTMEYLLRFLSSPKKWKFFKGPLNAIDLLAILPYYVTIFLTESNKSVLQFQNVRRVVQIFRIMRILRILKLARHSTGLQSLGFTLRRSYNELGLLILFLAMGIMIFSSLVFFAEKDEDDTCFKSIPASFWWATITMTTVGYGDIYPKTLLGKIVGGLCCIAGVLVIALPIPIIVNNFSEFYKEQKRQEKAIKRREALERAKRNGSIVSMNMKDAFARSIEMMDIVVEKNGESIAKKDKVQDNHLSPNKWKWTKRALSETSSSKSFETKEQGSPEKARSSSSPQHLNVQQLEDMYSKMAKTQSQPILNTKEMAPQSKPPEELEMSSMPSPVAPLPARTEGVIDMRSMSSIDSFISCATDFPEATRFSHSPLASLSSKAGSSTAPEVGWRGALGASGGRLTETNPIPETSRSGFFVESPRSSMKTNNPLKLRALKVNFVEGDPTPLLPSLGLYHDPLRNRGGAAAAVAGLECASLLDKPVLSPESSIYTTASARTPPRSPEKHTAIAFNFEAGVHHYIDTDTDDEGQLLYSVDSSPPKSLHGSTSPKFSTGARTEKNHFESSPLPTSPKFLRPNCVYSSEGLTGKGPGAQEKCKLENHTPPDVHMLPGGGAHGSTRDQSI
Experiment: Cysteine protection experiments, K356C variant of Kv2.1 in oocytes
Assay type: cell-based
Excerpt: Kv2.1 mutants were constructed using the QuickChange Multi Site-Directed Mutagenesis Kit (Stratagene, La Jolla, Calif.). Mutant Kv2.1 genes (in the pGA1 oocyte expression vector for oocyte expression) were sequenced in their entirety to confirm appropriate mutations and check for inadvertent mutations, and then subcloned into a wild-type pGA1 backbone. For oocyte expression, Kv3.4 was in pBF1, Kv4.2 was in pRAT. cRNA transcripts were produced from SacII-linearized (Kv2.1), Mlullinearized (Kv3.4) and Not1-linearized (Kv4.2) DNA templates using the T3 (Kv2.1), SP6 (Kv3.4) and T7 (Kv4.2) mMessage mMachine kits (Ambion, Austin, Tex.). cRNA was quantified by spectrophotometry and its size integrity verified by gel electophoresis. Defolliculated stage V and VI Xenopus laevis oocytes (purchased from Nasco, Grand Island, N.Y.) were injected with 5 ng of cRNA encoding Kv2.1, Kv3.4 or Kv4.2. Chinese Hamster Ovary (CHO) cells were transfected with 0.25 μg Kv2.1 cDNA, 2 μg blank plasmid and 2 μg Green fluorescent Protein in pBOB using Supetfect transfection reagent (Qiagen) 24 hours before whole-cell voltage clamp studies.
Whole-cell two-electrode voltage-clamp (TEVC) recordings were performed on X laevis oocytes expressing cloned Kv2.1, Kv3.4 or Kv4.2 using a Warner OC-725C amplifier and pClamp9 (Axon Instruments, Foster City, Calif.) software. Oocytes were bathed in a small-volume Warner oocyte bath and viewed with a Fisher dissection microscope. Bath solution for whole-cell oocyte recordings was (in mM): 96 NaCl, 4 KCl, 0.7 MgCl2, 1 CaCl2, 10 HEPES (pH 7.4); whole-cell oocyte TEVC pipettes were of 0.2-2 M resistance when filled with 3 M KCl. Experiments were performed 24-48 hours after cRNA injection. For assessment of current-voltage relationships in the absence or presence of dabco derivatives, oocytes were held at −80 mV, stepped for 2 seconds at voltages between −80 mV and +60 mV in 20 mV steps (Kv2.1) or between −80 and +50 mV in 10 mV steps (Kv3.4), then held for 500 ms at −40 mV before returning to the holding potential. For assessment of block during wash-in of dabco derivatives at a single voltage, oocytes were held at −80 mV, and repetitively stepped to 0 mV for 2 s with an interpulse interval of 10 s or 60 s as indicated. A range of concentrations of dabco or dabco derivatives were washed in via the bath solution during repetitive single-voltage pulses (after an initial period of 5 pulses with control solution to ensure current stabilization) until equilibrium block was achieved, to establish dose-responses. Inhibited currents are compared to the current at the end of 5-pulse control period, thus some bar graphs show ‘control’ current values slightly less than 1, and with an error bar, to show how much currents deviate in the absence of drug. Washout was performed after the highest concentration of blocker was washed in. In cases where washout was achieved, only those recordings in which current returned to within 10% of original current level were used for construction of dose-response curves. For cysteine protection experiments using the K356C variant of Kv2.1, a dabco derivative (JC638.2a) was washed in to equilibrium block, followed by wash-in of a solution containing both JC638.2a and MTSET until no further changes in current were seen; following this the solution was washed out with standard bath solution. As controls for this protection analysis, JC638.2a or MTSET were washed in alone until equilibrium block, then washed out.

[1] = K356C-Kv2.1, JC638.2α plus MTSET

SMILES: c1cc(C[N+]23CCN(CC2)CC3)ccc1C[N+]12CCN(CC1)CC2 [JC638.2α, α,α′-[bis(4-aza-1-azoniabicyclo[2.2.2]octanyl)]p-xylene]
- current inhibition, administered alone (K356C mutant): 62±3%
- reversibility of block with washout (K356C mutant, administered alone): reversed with washout
- current inhibition, co-application with MTSET after pre-application [1]: 84±1%
- reversibility with washout, co-application with MTSET [1]: completely reversible with washout
